# Measured values reported in ChEMBL document CHEMBL3608207, “Synthesis, characterization, evaluation and molecular dynamics studies of 5, 6-diphenyl-1,2,4-triazin-3(2H)-one derivatives bearing 5-substituted 1,3,4-oxadiazole as potential anti-inflammatory and analgesic agents” (Eur J Med Chem, 2015).
# Legend:
# Rattus norvegicus [1] = test: Gastro-intestinal toxicity in rat Freund's adjuvant induced arthritis model of chronic inflammation assessed as assessed as histological changes at 10 mg/kg, po dosed after 14 days from day of adjuvant injection until day 21 and measured on day 21 by hematoxylin and eosin staining based microscopy; type: organism-based; conditions: in vivo, 336 h
# Rattus norvegicus [2] = test: Anti-inflammatory activity in rat assessed as inhibition of arachidonic acid-induced paw edema at 10 mg/kg, po dosed 30 mins before arachidonic acid injection and measured 1 hr after arachidonic acid injection; type: functional
# Mus musculus [3] = test: Analgesic activity in Swiss albino mouse assessed as reduction in number of writhing episodes at 10 mg/kg, po measured 30 mins following acetic acid injection; type: functional; conditions: 0.5 h
# Rattus norvegicus [4] = test: Hepato-toxicity in rat Freund's adjuvant induced arthritis model of chronic inflammation assessed as assessed as alkaline phosphatase level at 10 mg/kg, po dosed after 14 days from day of adjuvant injection until day 21 and measured on day 21 (reference value: 17.82 +/- 1.2 U); type: organism-based; conditions: in vivo, 336 h
# Rattus norvegicus [5] = test: Renal toxicity in rat Freund's adjuvant induced arthritis model of chronic inflammation assessed as assessed as histological changes at 10 mg/kg, po dosed after 14 days from day of adjuvant injection until day 21 and measured on day 21 by hematoxylin and eosin staining based microscopy; type: organism-based; conditions: in vivo, 336 h
# Rattus norvegicus [6] = test: Renal toxicity in rat Freund's adjuvant induced arthritis model of chronic inflammation assessed as assessed as creatinine level at 10 mg/kg, po dosed after 14 days from day of adjuvant injection until day 21 and measured on day 21 (reference value: 0.62 +/- 0.049 mg/dL); type: organism-based; conditions: in vivo, 336 h
# Rattus norvegicus [7] = test: Anti-inflammatory activity in rat Freund's adjuvant induced arthritis model of chronic inflammation assessed as inhibition of right hind paw swelling at 10 mg/kg, po dosed after 14 days from day of adjuvant injection until day 21 and measured on day 21; type: functional
# Rattus norvegicus [8] = test: Anti-inflammatory activity in rat Freund's adjuvant induced arthritis model of chronic inflammation assessed as inhibition of right hind paw swelling at 10 mg/kg, po dosed after 14 days from day of adjuvant injection until day 21 and measured on day 15; type: functional
# Rattus norvegicus [9] = test: Anti-inflammatory activity in rat Freund's adjuvant induced arthritis model of chronic inflammation assessed as inhibition of right hind paw swelling at 10 mg/kg, po dosed after 14 days from day of adjuvant injection until day 21 and measured on day 18; type: functional
# Rattus norvegicus [10] = test: Renal toxicity in rat Freund's adjuvant induced arthritis model of chronic inflammation assessed as assessed as total protein level at 10 mg/kg, po dosed after 14 days from day of adjuvant injection until day 21 and measured on day 21 (reference value: 1.78 +/- 0.11 g/dL); type: organism-based; conditions: in vivo, 336 h
# [11] = In-vitro antiinflammatory activity assessed as inhibition of denaturation of bovine serum albumin at 10 mg; type: functional
# Rattus norvegicus [12] = test: Anti-inflammatory activity in rat model of acute inflammation assessed as inhibition of carrageenan-induced paw oedema dosed at 10 mg/kg, po dosed 1 hr before carrageenan injection and measured 6 hrs after carrageenan injection; type: functional
# Rattus norvegicus [13] = test: Renal toxicity in rat Freund's adjuvant induced arthritis model of chronic inflammation assessed as assessed as total albumin level at 10 mg/kg, po dosed after 14 days from day of adjuvant injection until day 21 and measured on day 21 (reference value: 1.77 +/- 0.12 g/dL); type: organism-based; conditions: in vivo, 336 h
# Rattus norvegicus [14] = test: Anti-inflammatory activity in rat Freund's adjuvant induced arthritis model of chronic inflammation assessed as inhibition of right hind paw swelling at 10 mg/kg, po dosed after 14 days from day of adjuvant injection until day 21 and measured on day 9; type: functional
# Rattus norvegicus [15] = test: Anti-inflammatory activity in rat model of acute inflammation assessed as inhibition of carrageenan-induced paw oedema dosed at 10 mg/kg, po dosed 1 hr before carrageenan injection and measured 2 hrs after carrageenan injection; type: functional
# Rattus norvegicus [16] = test: Hepato-toxicity in rat Freund's adjuvant induced arthritis model of chronic inflammation assessed as assessed as SGPT level at 10 mg/kg, po dosed after 14 days from day of adjuvant injection until day 21 and measured on day 21 (reference value: 34.23 +/- 2.5 U/mL); type: organism-based; conditions: in vivo, 336 h
# Rattus norvegicus [17] = test: Anti-inflammatory activity in rat Freund's adjuvant induced arthritis model of chronic inflammation assessed as inhibition of right hind paw swelling at 10 mg/kg, po dosed after 14 days from day of adjuvant injection until day 21 and measured on day 6; type: functional
# Rattus norvegicus [18] = test: Anti-inflammatory activity in rat model of acute inflammation assessed as inhibition of carrageenan-induced paw oedema dosed at 10 mg/kg, po dosed 1 hr before carrageenan injection and measured 5 hrs after carrageenan injection; type: functional
# Rattus norvegicus [19] = test: Hepato-toxicity in rat Freund's adjuvant induced arthritis model of chronic inflammation assessed as assessed as histological changes at 10 mg/kg, po dosed after 14 days from day of adjuvant injection until day 21 and measured on day 21 by hematoxylin and eosin staining based microscopy; type: organism-based; conditions: in vivo, 336 h
# Rattus norvegicus [20] = test: Hepato-toxicity in rat Freund's adjuvant induced arthritis model of chronic inflammation assessed as assessed as SGOT level at 10 mg/kg, po dosed after 14 days from day of adjuvant injection until day 21 and measured on day 21 (reference value: 92.48 +/- 7.8 U/mL); type: organism-based; conditions: in vivo, 336 h
# Mus musculus [21] = test: Analgesic activity in Swiss albino mouse assessed as reduction in formalin-induced paw licking by measuring time spent on licking during phase-1 at 10 mg/kg, po dosed 1 hr before formalin challenge and measured 30 mins after formalin injection; type: functional
# Rattus norvegicus [22] = test: Renal toxicity in rat Freund's adjuvant induced arthritis model of chronic inflammation assessed as assessed as blood urea nitrogen level at 10 mg/kg, po dosed after 14 days from day of adjuvant injection until day 21 and measured on day 21 (reference value: 23.48 +/- 1.8 mg/dL); type: organism-based; conditions: in vivo, 336 h
# Rattus norvegicus [23] = test: Anti-inflammatory activity in rat Freund's adjuvant induced arthritis model of chronic inflammation assessed as inhibition of right hind paw swelling at 10 mg/kg, po dosed after 14 days from day of adjuvant injection until day 21 and measured on day 3; type: functional
# Mus musculus [24] = test: Analgesic activity in Swiss albino mouse assessed as reduction in formalin-induced paw licking by measuring time spent on licking during phase-2 at 10 mg/kg, po dosed 1 hr before formalin challenge and measured 30 mins after formalin injection; type: functional
# Rattus norvegicus [25] = test: Anti-inflammatory activity in rat model of acute inflammation assessed as inhibition of carrageenan-induced paw oedema dosed at 10 mg/kg, po dosed 1 hr before carrageenan injection and measured 1 hr after carrageenan injection; type: functional
# Rattus norvegicus [26] = test: Anti-inflammatory activity in rat model of acute inflammation assessed as inhibition of carrageenan-induced paw oedema dosed at 10 mg/kg, po dosed 1 hr before carrageenan injection and measured 3 hrs after carrageenan injection; type: functional
# Rattus norvegicus [27] = test: Anti-inflammatory activity in rat model of acute inflammation assessed as inhibition of carrageenan-induced paw oedema dosed at 10 mg/kg, po dosed 1 hr before carrageenan injection and measured 4 hrs after carrageenan injection; type: functional
# Rattus norvegicus [28] = test: Anti-inflammatory activity in rat Freund's adjuvant induced arthritis model of chronic inflammation assessed as inhibition of right hind paw swelling at 10 mg/kg, po dosed after 14 days from day of adjuvant injection until day 21 and measured on day 12; type: functional
# Rattus norvegicus [29] = test: Gastro-intestinal toxicity in rat Freund's adjuvant induced arthritis model of chronic inflammation assessed as ulcer index at 10 mg/kg, po dosed after 14 days from day of adjuvant injection until day 21 and measured on day 21; type: organism-based; conditions: in vivo, 336 h
smiles,measurement,setting,value
COc1ccc2c(c1)c(CC(=O)O)c(C)n2C(=O)c1ccc(Cl)cc1 [INDOMETHACIN],Activity,Rattus norvegicus [1],Toxic
same,inhibition in vivo at 10 mg/kg,Rattus norvegicus [2],21.1%
same,inhibition in vivo at 10 mg/kg,Mus musculus [3],77.3%
same,Activity,Rattus norvegicus [4],26.24 U
same,Activity,Rattus norvegicus [5],Toxic
same,Activity,Rattus norvegicus [6],1.84 mg/dL
same,inhibition in vivo at 10 mg/kg,Rattus norvegicus [7],56.8%
same,inhibition in vivo at 10 mg/kg,Rattus norvegicus [8],51.3%
same,inhibition in vivo at 10 mg/kg,Rattus norvegicus [9],54.2%
same,Activity,Rattus norvegicus [10],2.24 g/dL
same,inhibition,[11],84.9%
same,inhibition in vivo at 10 mg/kg,Rattus norvegicus [12],57.8%
same,Activity,Rattus norvegicus [13],2.08 g/dL
same,inhibition in vivo at 10 mg/kg,Rattus norvegicus [14],42.4%
same,inhibition in vivo at 10 mg/kg,Rattus norvegicus [15],59.5%
same,Activity,Rattus norvegicus [16],52.83 U/ml
same,inhibition in vivo at 10 mg/kg,Rattus norvegicus [17],39.7%
same,inhibition in vivo at 10 mg/kg,Rattus norvegicus [18],62.6%
same,Activity,Rattus norvegicus [19],Toxic
same,Activity,Rattus norvegicus [20],121.56 U/ml
same,inhibition in vivo at 10 mg/kg,Mus musculus [21],15.6%
same,Activity,Rattus norvegicus [22],62.74 mg/dL
same,inhibition in vivo at 10 mg/kg,Rattus norvegicus [23],33.1%
same,inhibition in vivo at 10 mg/kg,Mus musculus [24],82.2%
same,inhibition in vivo at 10 mg/kg,Rattus norvegicus [25],57.6%
same,inhibition in vivo at 10 mg/kg,Rattus norvegicus [26],60.5%
same,inhibition in vivo at 10 mg/kg,Rattus norvegicus [27],60%
same,inhibition in vivo at 10 mg/kg,Rattus norvegicus [28],45.9%
same,UI,Rattus norvegicus [29],52
